PMC6440977, “Nucleoside analogue activators of cyclic AMP-independent protein kinase A of Trypanosoma” (Nature Communications, 2019)
Several values for one entry are separate records, joined by “and”; a condition that tells them apart may be missing. Equal entries are not always repeated. Where two headings read alike, the source gives them in different places.

Experiments:
[1] = target: T. brucei PKAR(199–499) (Trypanosoma brucei, UniProt Q9GU80); experiment: biochemical; format: binding; parameters: Thermodynamics (ITC) -TΔS / Thermodynamics (ITC) ΔG / Thermodynamics (ITC) ΔH: unit: kcal/mol
[2] = system: PKAC1/2; format: cell-based, Trypanosoma brucei; conditions: for PKAC1/2 Western quantification: normalized to PFR, WT 0h set to 1, individual replicates; for PKAC1/2 counts / PKAC1/2 normalized / PKAC1/2 fold change: 4 µM; for PKAC1/2 normalized: normalized to PFR-A/C; for PKAC1/2 fold change: untreated WT set to 1;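 for all read-outs here: trypanosoma brucei cells, PKAC1/2 signal from western blots read on an infrared fluorescence scanning system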
[3] = system: T. brucei phosphoproteome; experiment: Quantitative phosphoproteomics; format: cell-based, Trypanosoma brucei
Procedure: For each sample, 6 × 10^8 T. brucei cells treated or not with 8 µM 7-cyano-7-deazainosine for 15 min were lysed in 300 µl 4% (w/v) sodium deoxycholate, 0.1 M Tris, pH 8.5 for 5 min at 95 °C (according to the protocol of Humphrey et al.[78]). Samples were sonicated using a Bioruptor (Diagenode) (high power, two cycles of 10 min each, 30 s on/off). Protein concentration was determined by BCA protein assay and samples were adjusted to equal concentrations. Sample preparation and mass spectrometry were exactly carried out as described by Humphrey et al.[78]. MaxQuant 1.5.2.8[79] was used to identify proteins and quantify by LFQ with the following parameters: Database, TriTrypDB-39_TbruceiTREU927_AnnotatedProteins; MS tol, 10 ppm; MS/MS tol, 0.5 Da; Peptide FDR, 0.1; Protein FDR, 0.01 Min. peptide Length, 5; Variable modifications, Oxidation (M), Phosphorylation (STY); Fixed modifications, Carbamidomethyl (C); Peptides for protein quantitation, razor and unique; Min. peptides, 1; Min. ratio count, 2. For proteomic analysis, identified proteins were considered as statistically significant with FDR ≤ 0.05 and s0 = 1 (two-sided Student’s T-test adjusted for multiple comparisons by Benjamini–Hochberg correction, Perseus[80]). […] The mass spectrometry phosphoproteomics data have been deposited to the ProteomeExchange Consortium via the PRIDE partner repository (https://www.ebi.ac.uk/pride/archive) with the dataset identifier PXD012245. GO enrichment analysis was performed in TriTrypDB with default settings and visualized in Revigo (http://revigo.irb.hr). The motif discovery tool MoMo (using the motif-x algorithm) implemented in the MEME suite (http://meme-suite.org/) was used for unbiased motif discovery in the phosphoproteome dataset with the T. brucei TriTrypDB-40_TbruceiTREU927 protein database as background. Enriched sequence logos were visualized using CLC Main Workbench 7 (https://www.qiagenbioinformatics.com/).

[4] = target: T. brucei PKAR-PKAC1 holoenzyme (Trypanosoma brucei, UniProt Q9GU80); experiment: biochemical; format: biochemical; conditions: for In vitro kinase assay: technical replicates
[5] = system: RXXS*/T* site phosphorylation; experiment: Western blot of global RXXS*/T* site phosphorylation (phospho-PKA substrate antibody); format: cell-based, Trypanosoma brucei; conditions: wild type, 2 µM, 10 min
[6] = system: T. brucei proteome; experiment: Label-free quantitative proteomics; format: cell-based, Trypanosoma brucei
Procedure: Trypanosomes treated or not with 2 µM 7-CN-7-C-Ino (time course: 0 h, 6 h, 12 h) were washed twice in phosphate buffered saline (PBS) and lysed in Laemmli sample buffer to a concentration of 2.5×10^5 cells µl -1. Protein concentration was determined by Colloidal Coomassie Blue staining and densitometry. 20 µg of protein were loaded on a 10% acrylamide SDS-PAGE gel. Migration was stopped when samples had entered the resolving gel and proteins were visualized by Colloidal Coomassie Blue staining. Each SDS-PAGE band was cut into 1 mm × 1 mm gel pieces and further processed as described previously 26.
Online nanoLC-MS/MS analyses were performed using an Ultimate 3000 RSLC Nano-UPHLC system (Thermo Scientific, USA) coupled to a nanospray Q-Exactive hybrid quadrupole-Orbitrap mass spectrometer (Thermo Scientific, USA). 1 µg of each peptide extract was loaded on a 300 µm ID x 5 mm PepMap C18 precolumn (Thermo Scientific, USA) at a flow rate of 20 µl min -1. After a 3 min desalting step, peptides were separated on a 75 µm ID x 25 cm C 18 Acclaim PepMap® RSLC column (Thermo Scientific, USA) with a 4-40% linear gradient of solvent B (0.1% formic acid in 80% ACN) in 108 min. The separation flow rate was set at 300 nl min-1. The mass spectrometer operated in positive ion mode at a 1.8 kV needle voltage. Data was acquired using Xcalibur 3.1 software in a data-dependent mod e. MS scans (m/z 300-1,600) were recorded at a resolution of R = 70,000 (@ m/z 200) and an AGC target of 3×10 6 ions collected within 100 ms. Dynamic exclusion was set to 30 s and top 12 ions were selected from fragmentation in HCD mode. MS/MS scans with a target value of 1×10 5 ions

[7] = treated (Act) vs control (Crtl), significant, FDR ≤ 0.05, s0=2, 4 replicates
[8] = WT trypanosomes, 12 hours treatment vs untreated, LFQ, three independent replicates

Sequence of T. brucei PKAR-PKAC1 holoenzyme (Q38DR5 entry or part of it): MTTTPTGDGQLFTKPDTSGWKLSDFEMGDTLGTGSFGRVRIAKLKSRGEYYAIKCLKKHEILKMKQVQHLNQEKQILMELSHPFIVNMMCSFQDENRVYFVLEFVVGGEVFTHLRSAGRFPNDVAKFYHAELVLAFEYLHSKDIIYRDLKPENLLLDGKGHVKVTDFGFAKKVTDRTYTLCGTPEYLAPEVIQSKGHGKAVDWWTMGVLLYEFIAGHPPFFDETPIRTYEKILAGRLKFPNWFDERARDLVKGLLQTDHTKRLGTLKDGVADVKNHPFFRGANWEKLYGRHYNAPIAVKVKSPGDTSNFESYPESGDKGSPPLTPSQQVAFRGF
Sequence of T. brucei PKAR-PKAC1 holoenzyme (Q9GU80 entry or part of it): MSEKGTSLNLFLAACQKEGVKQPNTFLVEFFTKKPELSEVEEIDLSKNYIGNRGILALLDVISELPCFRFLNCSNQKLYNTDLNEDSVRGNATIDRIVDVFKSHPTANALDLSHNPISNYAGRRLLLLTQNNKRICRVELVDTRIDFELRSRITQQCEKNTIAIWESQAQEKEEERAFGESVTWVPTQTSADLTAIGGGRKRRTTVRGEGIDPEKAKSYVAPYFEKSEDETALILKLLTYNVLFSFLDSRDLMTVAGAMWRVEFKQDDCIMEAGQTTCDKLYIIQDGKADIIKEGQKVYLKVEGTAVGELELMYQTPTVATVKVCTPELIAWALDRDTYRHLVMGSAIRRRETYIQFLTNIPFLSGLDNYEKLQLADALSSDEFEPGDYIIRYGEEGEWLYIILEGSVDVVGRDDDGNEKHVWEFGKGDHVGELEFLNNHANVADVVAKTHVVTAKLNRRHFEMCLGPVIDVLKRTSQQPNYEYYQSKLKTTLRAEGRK
Sequence of T. brucei PKAR(199–499) (Q9GU80 entry or part of it): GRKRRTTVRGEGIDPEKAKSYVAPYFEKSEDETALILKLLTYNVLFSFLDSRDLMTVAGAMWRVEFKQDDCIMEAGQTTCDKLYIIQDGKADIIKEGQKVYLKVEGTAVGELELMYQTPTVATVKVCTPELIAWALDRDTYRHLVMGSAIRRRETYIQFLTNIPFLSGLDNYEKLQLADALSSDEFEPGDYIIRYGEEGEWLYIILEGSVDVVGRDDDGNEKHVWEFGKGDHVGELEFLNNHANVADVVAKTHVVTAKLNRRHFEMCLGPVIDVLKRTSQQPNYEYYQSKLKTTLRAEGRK

N#Cc1cn([C@@H]2O[C@H](CO)[C@@H](O)[C@H]2O)c2ncnc(O)c12 [7-CN-7-C-Ino, 7-Cyano-7-deazainosine]
Kd ([1]; 298 K, mean ± SD, n=3, read-out: KD in vitro binding to PKAR (ITC)): 8 ± 2 nM | −TΔS (entropic component of binding) ([1]; ITC, mean): -2.3 kcal/mol | Thermodynamics (ITC) -TΔS ([1]; independent replicates): -2.82 and -2.13 and -1.91 | Thermodynamics (ITC) ΔG ([1]; independent replicates): -11.3 and -10.9 and -11 | Thermodynamics (ITC) ΔH ([1]; independent replicates): -8.48 and -8.8 and -9.1 | Molar ratio of binding (ITC) ([1]; ligand to protein, mean ± SD, n=3): 2 ± 0.2 | higher binding affinity to PKAR compared to Toyo ([1]; ratio of KD): 7 fold | PKAC1/2 Western quantification ([2]; R KO cells, 6 h treatment): 0.4425 and 0.1597 and 0.1981 | PKAC1/2 Western quantification ([2]; R KO cells, 12 h treatment): 0.2802 and 0.2063 and 0.2365 | PKAC1/2 Western quantification ([2]; WT cells, 6 h treatment): 0.4685 and 0.4579 and 0.5439 | PKAC1/2 Western quantification ([2]; WT cells, 12 h treatment): 0.3997 and 0.2606 and 0.4376 | PKAC1/2 counts ([2]; WT, 12 h): 99.53 | PKAC1/2 normalized ([2]; WT, 12 h): 60.689 | PKAC1/2 fold change ([2]; WT, 12 h): 0.4385 | PKAC1/2 counts ([2]; WT, 18 h): 76 | PKAC1/2 normalized ([2]; WT, 18 h): 55.0725 | PKAC1/2 fold change ([2]; WT, 18 h): 0.3979 | PKAC1/2 counts ([2]; WT, 24 h): 86.74 | PKAC1/2 normalized ([2]; WT, 24 h): 55.6026 | PKAC1/2 fold change ([2]; WT, 24 h): 0.4018 | PKAC1/2 counts ([2]; pkar KO, 12 h): 70.66 | PKAC1/2 normalized ([2]; pkar KO, 12 h): 3.197 | PKAC1/2 fold change ([2]; pkar KO, 12 h): 0.1969 | PKAC1/2 counts ([2]; pkar KO, 18 h): 69.65 | PKAC1/2 normalized ([2]; pkar KO, 18 h): 3.869 | PKAC1/2 fold change ([2]; pkar KO, 18 h): 0.2383 | PKAC1/2 counts ([2]; pkar KO, 24 h): 95.11 | PKAC1/2 normalized ([2]; pkar KO, 24 h): 3.187 | PKAC1/2 fold change ([2]; pkar KO, 24 h): 0.1963 | downregulated phosphosites (number) ([3]; 8 µM, 15 min): 84 | downregulated phosphosites containing PKA motifs ([3]; 8 µM, 15 min): 19% | upregulated phosphosites containing PKA motifs ([3]; 8 µM, 15 min): 77% | significantly upregulated phosphosites (number) ([3]; 8 µM, 15 min, FDR ≤ 0.05, s0 = 2): 642 | Difference, phosphopeptide Tb11.v5.1036.1 gamma-tubulin complex subunit, putative, S120 [3, 7]: 3.988 | Difference, phosphopeptide Tb927.10.630 hypothetical protein, conserved, S331 [3, 7]: 2.868 | Difference, phosphopeptide Tb927.10.8410 hypothetical protein, conserved, S234 [3, 7]: 2.478 | In vitro kinase assay ([4]; 0.00014 µM): 0.05 U/ml and 0.04 U/ml (2×) | In vitro kinase assay ([4]; 0.00041 µM): 0.05 U/ml | In vitro kinase assay ([4]; 0.00123 µM): 0.08 U/ml and 0.07 U/ml (2×) | In vitro kinase assay ([4]; 0.0037 µM): 0.12 U/ml | In vitro kinase assay ([4]; 0.01111 µM): 0.16 U/ml (2×) and 0.18 U/ml | In vitro kinase assay ([4]; 0.03333 µM): 0.2 U/ml and 0.19 U/ml (2×) | In vitro kinase assay ([4]; 0.1 µM): 0.18 U/ml and 0.17 U/ml and 0.19 U/ml | In vitro kinase assay ([4]; 0.3 µM): 0.17 U/ml and 0.2 U/ml and 0.16 U/ml | higher activation potency on purified holoenzyme compared to Toyo ([4]; ratio of EC50): 36 fold | increase in global RXXS*/T* site phosphorylation [5]: 3–4 fold | fold regulation KO12 vs KO0 (up/down), Tb927.2.5820 hypothetical protein ([6]; PKAR knock out trypanosomes, 12 hours treatment vs untreated, LFQ, three independent replicates): 1.69 ± 0.28 fold | fold regulation WT12 vs WT0 (up/down), Tb927.10.12510 P-type H+-ATPase [6, 8]: 0.60 ± 0.03 fold | fold regulation WT12 vs WT0 (up/down), Tb927.10.2440 Metacaspase-4 [6, 8]: 0.65 ± 0.03 fold | fold regulation WT12 vs WT0 (up/down), Tb927.10.8440 glucose transporter [6, 8]: 1.56 ± 0.16 fold | fold regulation WT12 vs WT0 (up/down), Tb927.11.14750 PSP1 C-terminal conserved region [6, 8]: 0.52 ± 0.04 fold | fold regulation WT12 vs WT0 (up/down), Tb927.2.5820 hypothetical protein [6, 8]: 1.82 ± 0.31 fold | fold regulation WT12 vs WT0 (up/down), Tb927.4.4310 Nucleoporin NUP64 [6, 8]: 0.65 ± 0.05 fold | fold regulation WT12 vs WT0 (up/down), Tb927.7.3450 I/6 autoantigen [6, 8]: 1.58 ± 0.04 fold | fold regulation WT12 vs WT0 (up/down), Tb927.7.7520;Tb927.7.7530 receptor-type adenylate cyclase GRESAG 4 [6, 8]: 0.65 ± 0.02 fold | fold regulation WT12 vs WT0 (up/down), Tb927.8.6760 IgE-dep. histamine-releasing factor [6, 8]: 0.66 ± 0.01 fold | fold regulation WT12 vs WT0 (up/down), Tb927.8.7780 hypothetical protein [6, 8]: 1.55 ± 0.08 fold | fold regulation WT12 vs WT0 (up/down), Tb927.9.10100 hypothetical protein [6, 8]: 0.53 ± 0.02 fold | fold regulation WT12 vs WT0 (up/down), Tb927.9.11100 cAMP-dependent protein kinase catalytic subunit 1 [6, 8]: 0.36 ± 0.01 fold | fold regulation WT12 vs WT0 (up/down), Tb927.9.12380 Histidine phosphatase superfamily (branch 1) [6, 8]: 0.48 ± 0.11 fold | fold regulation WT12 vs WT0 (up/down), Tb927.9.2670 Engulfment and cell motility domain-containing protein [6, 8]: 1.70 ± 0.08 fold | significantly regulated proteins, in words ([6]; wild type, 6 h post induction): No significantly regulated proteins | significantly regulated proteins (number) ([6]; wild type, 12 h post induction, ≥[…], p ≤ 0.05): 14
